According to paper PMC6014988, “Precision therapeutic targeting of human cancer cell motility” (Nature Communications, 2018):

How the values were obtained:
PC3-luc cells = assay: Intracardiac injection PC3-luc bone metastasis model; assay type: in vivo, mouse
From the text: Fig. 3 KBU2046 inhibits bone destruction. a Treatment schema. Athymic mice were given intracardiac (IC) injections of PC3-luc cells on day 0 under ultrasound guidance, and underwent weekly IVIS imaging starting 7 days post injection. Cohorts of N = 20 control, N = 20 pre (treatment from 3 days prior to IC injection through end of the experiment), N = 10 Pre7Stop (treatment from 3 days prior to IC injection through 7 days post IC injection), and N = 10 post-treatment (treatment from 3 days post IC injection through end of the experiment) mice were dosed with 80 mg/kg KBU2046 daily by oral gavage and mock-treated with vehicle all other times. Whole-body (b) and mandible (c) flux are depicted, as determined from weekly IVIS imaging. d At week 4 post injection (i.e., at the end of the experiment), CT scans were performed on control, pre-, and post-treatment cohorts, and mandibular destruction quantified. e Representative images of pre and control mice are depicted. Arrows denote areas of bone destruction in controls, and corresponding areas in the pre mouse. Student’s t-test (b, c) and Fisher’s exact test (d) P values between the denoted cohorts are shown
Prostate cancer: intracardiac (IC) injection: IC injection of 4.0 × 10^5 PC3-Luc cells into male 6–8 week old athymic mice with IVIS imaging was performed as described, and was done so under ultrasound guidance (Supplementary Fig. 9). Mice were treated pre- and/or post-IC injection, as indicated. The pretreatment cohort emulates a metastasis naive model wherein cell motility is required in order for cells to invade into a distant organ, in this case, the jaw bone, for which this model is widely used. If KBU2046 were inhibiting cell motility, then in this model it would act to inhibit metastasis formation. In contrast, with the post-implantation cohort, cells have already completed invasion into the jaw bone, and distant metastasis have been established. […] IVIS imaging was performed 30 min after IC injection to confirm systemic distribution of cells, and thereafter weekly for 4 weeks starting 7 days post injection, allowing real-time tracking of metastasis development and growth. Computed tomograpgy (CT) (Inveon, Seimens) radiographic imaging was performed on some mice, as indicated, and resultant images analyzed in a blinded fashion using Inveon Research Workplace 4.2 visualization/analysis software and ImageJ. […] Experimental groups were randomly assigned to cages prior to the initiation of the study. CT images were analyzed in a blinded fashion to determine total bone loss using both the Invenon Research Workplace 4.2 visualization/analysis software and ImageJ. Specifically, to asses bone loss in an unbiased manner, an operator randomly loaded images into the system and blocked out identifying information prior to analysis by two separate blinded individuals.

442 kinases = assay: KINOMEscan assay; assay type: binding; details: 10 µM; negatives include MKK4, p38 MAPK, RAF1
Description: Initial assays were performed with PC3 and PC3-M cells (PC3 cell data not shown). However, as these studies yielded similar findings, subsequent screening assays utilized only PC3-M cells. In designing chemical synthetic routes, priority was given to efficacy and toxicity parameters. Additional design features were also included in our chemical […]
toxicity parameters. These additional design features included removal of fragments that mediated genistein binding to the estrogen receptor (ER), as determined by ER-genistein 3D x-ray crystal structures (Protein Data Base IDs:1X7R and 1X7J, for crystal structures of ERα and ERβ with bound genistein, respectively). These features also included removal of chemical fragments that are considered to increase susceptibility to rapid metabolism, especially that by the cytochrome P450 (CYP) pathway. The final feature involved incorporation of chemical characteristics previously shown to be associated with effective drugs and which together generally impart more favorable pharmacologic properties, including those described by Lipinski […]
Supplementary Note 2. […] Three […]
different assays systems were employed.
Kinase assay system #1. The KINOMEscan™ assay (Ambit Biosciences). This assay evaluates 442 kinases, including 400 distinct parental kinases plus mutants known to alter activity or responsiveness. […]

[1] = target: T1, Isovaleryl-CoA dehydrogenase (Homo sapiens, UniProt P26440); assay: ProtoArray binding, Isovaleryl-CoA dehydrogenase; details: 10 fold excess free KBU2046
T1 construct: purchased Invitrogen
Description: The ProtoArray® assay, using the Human Protein Microarray platform, was performed by Invitrogen. […]
followed by detection with FITC-streptavidin, and visualization by fluorescent microscopy (with equal exposure times). (d) Protein array hybridization. KBU2046-biotin was hybridized to ProtoArray® Human Protein Microarray’s at 0.5 and 10 µM with and without 10 fold excess free KBU2046. We first sought proteins that met the following criteria, and did so at both 0.5 and 10 µM concentrations of KBU2046-biotin (in the absence of free KBU2046): Z-Score greater than 2.5, Z-Factor greater than 0.5, CI P-value less than 0.05, negative control value <2,000 (relative fluorescence units; RFUs), and a signal/negative control signal of >10 and >5 for 10 µM and 0.5 µM conditions, respectively. This yielded 3 proteins, shown in table, for an initial hit rate of 0.03%. We then required free KBU2046 to inhibit binding by >75%. Of the two remaining candidates, we eliminated isovaleryl-CoA dehydrogenase (ICD). Its binding signal doubled on […]
suspected non-specific binding by the biotin-linker moiety. We deemed cysteine and glycine-rich protein 1 (CSRP1) our top priority protein, though its binding characteristics at 10 µM + free KBU2046 were similar to ICD, albeit not as extreme. We thus evaluated whether KBU2046- […]
There were two additional notable findings from protein array studies. […]

[2] = pre-cohort, 80 mg/kg daily oral gavage

T1 sequence (P26440 33-426): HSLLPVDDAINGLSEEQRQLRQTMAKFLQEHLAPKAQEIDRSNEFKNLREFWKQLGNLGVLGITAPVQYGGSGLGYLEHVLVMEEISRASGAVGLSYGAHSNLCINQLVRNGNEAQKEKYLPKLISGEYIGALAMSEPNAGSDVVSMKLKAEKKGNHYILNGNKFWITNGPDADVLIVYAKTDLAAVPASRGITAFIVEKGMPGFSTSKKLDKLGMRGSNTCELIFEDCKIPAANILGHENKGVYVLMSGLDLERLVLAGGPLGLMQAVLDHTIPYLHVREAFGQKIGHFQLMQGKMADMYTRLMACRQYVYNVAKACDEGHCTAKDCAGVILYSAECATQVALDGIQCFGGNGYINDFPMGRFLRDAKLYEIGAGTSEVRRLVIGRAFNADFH

With `O=C1c2ccccc2OCC1c1ccc(F)cc1` (racemic) [KBU2046, (±)-3(4-fluorophenyl)chroman-4-one] the total body metastasis (PC3-luc cells; Pre7Stop cohort) was “total body metastasis is significantly decreased”, the “metastasis to the total body and jaw” value (PC3-luc cells; post-cohort, treatment from 3 days post IC injection) was “do not differ from control mice” and the “metastasis to the mandible” value (PC3-luc cells; [2]) was “decreased metastasis to the mandible”. For the same compound, the total metastatic burden (PC3-luc cells; [2]) was “significant decrease in total metastatic burden”, the “destruction of bone (mandible, CT)” value (PC3-luc cells; pre-cohort, week 4) was “decreased destruction of bone” and the “inhibition of kinase binding to immobilized substrate” value (442 kinases) was “completely negative”. The “% inhibition by competitor” value ([1]; 0.5 uM KBU2046-biotin) was 80% and the “% inhibition by competitor” value ([1]; 10 uM KBU2046-biotin) was 12%.
